In patent US9850225B2, “Compounds useful as immunomodulators” (BRISTOL-MYERS SQUIBB COMPANY, priority 2014, dated 2017):
Structures can show the parent of a compound that is named as a salt.

Target: PD-1/PD-L1 interaction (PD-1-Ig / PD-L1-His) (Homo sapiens (Human), UniProt Q9NZQ7)
Assay: PD-1/PD-L1 Homogenous Time-Resolved Fluorescence (HTRF) binding assay
Conditions: PD-1/PD-L1 HTRF binding assay; numeric value; read-out: Range or IC50
Procedure, shortened: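 HTRF detection used 1 nM europium-cryptate anti-Ig and 20 nM APC anti-His. Compounds first saw 10 nM PD-L1-His for 15 min, and 20 nM PD-1-Ig was then added for another 15 min. Buffer was dPBS plus 0.1% BSA and 0.05% Tween-20. All concentrations are final.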

Sequence of PD-1/PD-L1 interaction (PD-1-Ig / PD-L1-His) (Q9NZQ7 other isoform, or with tags, fused parts or gaps): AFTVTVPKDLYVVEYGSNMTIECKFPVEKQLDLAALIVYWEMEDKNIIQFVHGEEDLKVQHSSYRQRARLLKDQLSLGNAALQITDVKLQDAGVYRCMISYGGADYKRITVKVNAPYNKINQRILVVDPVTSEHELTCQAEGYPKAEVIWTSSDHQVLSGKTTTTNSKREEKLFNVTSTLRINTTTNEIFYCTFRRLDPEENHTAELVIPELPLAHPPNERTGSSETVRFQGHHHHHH

SMILES | IC50
Cc1c(COc2cc(OCc3cncc(C#N)c3)c(CNC[C@@H](O)CC(=O)O)cc2Cl)cccc1-c1ccc2c(c1)OCCO2 [Example 1250, (S)-4-((5-chloro-2-((5-cyanopyridin-3-yl)methoxy)-4-((3-(2,3-dihydrobenzo[b][1,4]dioxin-6-yl)-2-methylbenzyl)oxy)benzyl)amino)-3-hydroxybutanoic acid] | 1.19 nM

Same assay, conditions: PD-1/PD-L1 HTRF binding assay; value given as range class; read-out: Range or IC50

SMILES | IC50
N#Cc1cccc(COc2cc(OCc3cccc(-c4ccc5c(c4)OCCO5)c3C#N)c(Cl)cc2CN[C@H](CO)C(=O)O)c1 [Example 1242, (R)-2-((5-chloro-4-((2-cyano-3-(2,3-dihydrobenzo[b][1,4]dioxin-6-yl)benzyl)oxy)-2-((3-cyanobenzyl)oxy)benzyl)amino)-3-hydroxypropanoic acid] | 0.6 to 10 nM
Cc1c(COc2cc(OCc3cccc(C#N)c3)c(CNC3(C(=O)O)COC3)cc2Cl)cccc1-c1ccc2c(c1)OCCO2 [Example 1243, 3-((5-chloro-2-((3-cyanobenzyl)oxy)-4-((3-(2,3-dihydrobenzo[b][1,4]dioxin-6-yl)-2-methylbenzyl)oxy)benzyl)amino)oxetane-3-carboxylic acid] | 10 to 100 nM
Cc1c(COc2cc(OCc3cccc(C#N)c3)c(CN[C@@](C)(CO)C(=O)O)cc2Cl)cccc1-c1ccc2c(c1)OCCO2 [Example 1245, (S)-2-((5-chloro-2-((3-cyanobenzyl)oxy)-4-((3-(2,3-dihydrobenzo[b][1,4]dioxin-6-yl)-2-methylbenzyl)oxy)benzyl)amino)-3-hydroxy-2-methylpropanoic acid] | 0.6 to 10 nM
Cc1c(COc2cc(OCc3cccc(C#N)c3)c(CNC[C@@H](O)CC(=O)O)cc2Cl)cccc1-c1ccc2c(c1)OCCO2 [Example 1246, (S)-4-((5-chloro-2-((3-cyanobenzyl)oxy)-4-((3-(2,3-dihydrobenzo[b][1,4]dioxin-6-yl)-2-methylbenzyl)oxy)benzyl)amino)-3-hydroxybutanoic acid] | 0.6 to 10 nM
CC(=O)NCCNCc1cc(Cl)c(OCc2cccc(-c3ccc4c(c3)OCCO4)c2C)cc1OCc1cccc(C#N)c1 [Example 1247, N-(2-((5-chloro-2-((3-cyanobenzyl)oxy)-4-((3-(2,3-dihydrobenzo[b][1,4]dioxin-6-yl)-2-methylbenzyl)oxy)benzyl)amino)ethyl)acetamide] | 0.6 to 10 nM
Cc1c(COc2cc(OCc3cncc(C#N)c3)c(CN[C@](C)(CO)C(=O)O)cc2Cl)cccc1-c1ccc2c(c1)OCCO2 [Example 1248, (R)-2-((5-chloro-2-((5-cyanopyridin-3-yl)methoxy)-4-((3-(2,3-dihydrobenzo[b][1,4]dioxin-6-yl)-2-methylbenzyl)oxy)benzyl)amino)-3-hydroxy-2-methylpropanoic acid] | 0.6 to 10 nM
Cc1c(COc2cc(OCc3cncc(C#N)c3)c(CN[C@H](CO)C(=O)O)cc2Cl)cccc1-c1ccc2c(c1)OCCO2 [Example 1249, (R)-2-((5-chloro-2-((5-cyanopyridin-3-yl)methoxy)-4-((3-(2,3-dihydrobenzo[b][1,4]dioxin-6-yl)-2-methylbenzyl)oxy)benzyl)amino)-3-hydroxypropanoic acid] | 0.6 to 10 nM
CC(=O)NCCNCc1cc(Cl)c(OCc2cccc(-c3ccc4c(c3)OCCO4)c2C)cc1OCc1cncc(C#N)c1 [Example 1251, N-(2-((5-chloro-2-((5-cyanopyridin-3-yl)methoxy)-4-((3-(2,3-dihydrobenzo[b][1,4]dioxin-6-yl)-2-methylbenzyl)oxy)benzyl)amino)ethyl)acetamide] | 0.6 to 10 nM
Cc1c(COc2cc(OCc3cncc(C#N)c3)c(CN[C@@](C)(CO)C(=O)O)cc2Cl)cccc1-c1ccc2c(c1)OCCO2 [Example 1252, (S)-2-(5-chloro-2-((5-cyanopyridin-3-yl)methoxy)-4-(3-(2,3-dihydrobenzo[b][1,4]dioxin-6-yl)-2-methylbenzyloxy)benzylamino)-3-hydroxy-2-methylpropanoic acid] | 0.6 to 10 nM
Cc1c(COc2cc(OCc3cncc(C#N)c3)c(CN3CCCC[C@H]3C(=O)O)cc2Cl)cccc1-c1ccc2c(c1)OCCO2 [Example 1253, (S)-1-(5-chloro-2-((5-cyanopyridin-3-yl)methoxy)-4-((3-(2,3-dihydrobenzo[b][1,4]dioxin-6-yl)-2-methylbenzyl)oxy)benzyl)piperidine-2-carboxylic acid, TFA salt] | 0.6 to 10 nM
Cc1c(COc2cc(OCc3cncc(Br)c3)c(CN[C@](C)(CO)C(=O)O)cc2Cl)cccc1-c1ccc2c(c1)OCCO2 [Example 1254, (R)-2-(2-((5-bromopyridin-3-yl)methoxy)-5-chloro-4-(3-(2,3-dihydrobenzo[b][1,4]dioxin-6-yl)-2-methylbenzyloxy)benzylamino)-3-hydroxy-2-methylpropanoic acid] | 0.6 to 10 nM
CC(=O)NCCNCc1cc(Cl)c(OCc2cccc(-c3ccc4c(c3)OCCO4)c2C)cc1OCc1cncc(Br)c1 [Example 1255, N-(2-(2-((5-bromopyridin-3-yl)methoxy)-5-chloro-4-(3-(2,3-dihydrobenzo[b][1,4]dioxin-6-yl)-2-methylbenzyloxy)benzylamino)ethyl)acetamide] | 0.6 to 10 nM
Cc1c(COc2cc(OCc3cncc(C#N)c3)c(CN3CCCC[C@H]3C(=O)NS(C)(=O)=O)cc2Cl)cccc1-c1ccc2c(c1)OCCO2 [Example 1256, (S)-1-(5-chloro-2-((5-cyanopyridin-3-yl)methoxy)-4-((3-(2,3-dihydrobenzo[b][1,4]dioxin-6-yl)-2-methylbenzyl)oxy)benzyl)-N-(methylsulfonyl)piperidine-2-carboxamide] | 0.6 to 10 nM
Cc1c(COc2cc(OCc3cncc(C#N)c3)c(CN3CCCC[C@H]3C(=O)NS(=O)(=O)N(C)C)cc2Cl)cccc1-c1ccc2c(c1)OCCO2 [Example 1257, (S)-1-(5-chloro-2-((5-cyanopyridin-3-yl)methoxy)-4-((3-(2,3-dihydrobenzo[b][1,4]dioxin-6-yl)-2-methylbenzyl)oxy)benzyl)-N—(N,N-dimethylsulfamoyl)piperidine-2-carboxamide] | 10 to 100 nM
Cc1c(COc2cc(OCc3cncc(C#N)c3)c(CN3CCCC[C@H]3C(=O)NS(=O)(=O)C(F)(F)F)cc2Cl)cccc1-c1ccc2c(c1)OCCO2 [Example 1258, (S)-1-(5-chloro-2-((5-cyanopyridin-3-yl)methoxy)-4-((3-(2,3-dihydrobenzo[b][1,4]dioxin-6-yl)-2-methylbenzyl)oxy)benzyl)-N-((trifluoromethyl)sulfonyl)piperidine-2-carboxamide] | 10 to 100 nM
Cc1c(COc2cc(OCc3cncc(C#N)c3)c(CN3CCCC[C@H]3C(=O)NS(=O)(=O)C3CC3)cc2Cl)cccc1-c1ccc2c(c1)OCCO2 [Example 1259, (S)-1-(5-chloro-2-((5-cyanopyridin-3-yl)methoxy)-4-((3-(2,3-dihydrobenzo[b][1,4]dioxin-6-yl)-2-methylbenzyl)oxy)benzyl)-N-(cyclopropylsulfonyl)piperidine-2-carboxamide] | 0.6 to 10 nM
Cc1c(COc2cc(OCc3cncc(C#N)c3)c(CN3CCCC[C@H]3C(=O)NS(=O)(=O)C(C)C)cc2Cl)cccc1-c1ccc2c(c1)OCCO2 [Example 1260, (S)-1-(5-chloro-2-((5-cyanopyridin-3-yl)methoxy)-4-((3-(2,3-dihydrobenzo[b][1,4]dioxin-6-yl)-2-methylbenzyl)oxy)benzyl)-N-(isopropylsulfonyl)piperidine-2-carboxamide] | 0.6 to 10 nM
Cc1c(COc2cc(OCc3cncc(C#N)c3)c(CN3CCCC[C@H]3C(=O)NS(=O)(=O)c3cn(C)cn3)cc2Cl)cccc1-c1ccc2c(c1)OCCO2 [Example 1261, (S)-1-(5-chloro-2-((5-cyanopyridin-3-yl)methoxy)-4-((3-(2,3-dihydrobenzo[b][1,4]dioxin-6-yl)-2-methylbenzyl)oxy)benzyl)-N-((1-methyl-1H-imidazol-4-yl)sulfonyl)piperidine-2-carboxamide] | 0.6 to 10 nM
Cc1c(COc2cc(OCc3cncc(C#N)c3)c(CN3CCCC[C@H]3C(=O)NS(=O)(=O)N3CCN(C)CC3)cc2Cl)cccc1-c1ccc2c(c1)OCCO2 [Example 1262, (S)-1-(5-chloro-2-((5-cyanopyridin-3-yl)methoxy)-4-((3-(2,3-dihydrobenzo[b][1,4]dioxin-6-yl)-2-methylbenzyl)oxy)benzyl)-N-((4-methylpiperazin-1-yl)sulfonyl)piperidine-2-carboxamide] | 10 to 100 nM
Cc1c(COc2cc(O)c(CN[C@](C)(CO)C(=O)O)cc2Cl)cccc1-c1ccc2c(c1)OCCO2 [Example 1263, (R)-2-((5-chloro-4-((3-(2,3-dihydrobenzo[b][1,4]dioxin-6-yl)-2-methylbenzyl)oxy)-2-hydroxybenzyl)amino)-3-hydroxy-2-methylpropanoic acid, TFA] | 100 to 20000 nM
CC(=O)NCCNCc1cc(C)c(OCc2cccc(-c3ccc4c(c3)OCCO4)c2C)cc1OCc1cccc(C#N)c1 [Example 1264, N-(2-((2-((3-cyanobenzyl)oxy)-4-((3-(2,3-dihydrobenzo[b][1,4]dioxin-6-yl)-2-methylbenzyl)oxy)-5-methylbenzyl)amino)ethyl)acetamide] | 0.6 to 10 nM
Cc1cc(CNC[C@@H](O)CC(=O)O)c(OCc2cccc(C#N)c2)cc1OCc1cccc(-c2ccc3c(c2)OCCO3)c1C [Example 1265, (S)-4-((2-((3-cyanobenzyl)oxy)-4-((3-(2,3-dihydrobenzo[b][1,4]dioxin-6-yl)-2-methylbenzyl)oxy)-5-methylbenzyl)amino)-3-hydroxybutanoic acid] | 0.6 to 10 nM
Cc1cc(CN[C@@](C)(CO)C(=O)O)c(OCc2cccc(C#N)c2)cc1OCc1cccc(-c2ccc3c(c2)OCCO3)c1C [Example 1267, (S)-2-((2-((3-cyanobenzyl)oxy)-4-((3-(2,3-dihydrobenzo[b][1,4]dioxin-6-yl)-2-methylbenzyl)oxy)-5-methylbenzyl)amino)-3-hydroxy-2-methylpropanoic acid] | 0.6 to 10 nM
